Data from ChEMBL document CHEMBL4265916, “Synthesis and antiproliferative activities of novel quartenary ammonium spinosyn derivatives” (Bioorg Med Chem Lett, 2018).
pIC50: −log10 of the molar value. The source made the active and inactive calls. No cut-off for these calls is given here.

Experiments:
MCF7 [1] = experiment: Antiproliferative activity against human MCF7 cells at 50 uM after 48 hrs by MTT assay; assay type: functional
MCF7 [2] = experiment: Antiproliferative activity against human MCF7 cells after 48 hrs by MTT assay; assay type: functional, cell-based; settings: MCF7, 48 h
HCT-116 = experiment: Antiproliferative activity against human HCT116 cells after 48 hrs by MTT assay; assay type: functional, cell-based; settings: HCT-116, 48 h
NCI-H460 [3] = experiment: Antiproliferative activity against human NCI-H460 cells after 48 hrs by MTT assay; assay type: functional, cell-based; settings: NCI-H460, 48 h
U-87 MG = experiment: Antiproliferative activity against human U87MG cells after 48 hrs by MTT assay; assay type: functional, cell-based, U-87MG ATCC
NCI-H460 [4] = experiment: Induction of apoptosis in human NCI-H460 cells assessed as necrotic cells at 32 uM after 48 hrs by Annexin V-FITC/propidium iodide staining-based flow cytometric analysis (reference value: 2.11%); assay type: functional
NCI-H460 [5] = experiment: Induction of apoptosis in human NCI-H460 cells assessed as late apoptotic cells at 32 uM after 48 hrs by Annexin V-FITC/propidium iodide staining-based flow cytometric analysis (reference value: 1.80%); assay type: functional
NCI-H460 [6] = experiment: Induction of apoptosis in human NCI-H460 cells assessed as early apoptotic cells at 32 uM after 48 hrs by Annexin V-FITC/propidium iodide staining-based flow cytometric analysis (reference value: 2.17%); assay type: functional
NCI-H460 [7] = experiment: Induction of apoptosis in human NCI-H460 cells assessed as viable cells at 32 uM after 48 hrs by Annexin V-FITC/propidium iodide staining-based flow cytometric analysis (reference value: 93.9%); assay type: functional; settings: NCI-H460, 48 h, read-out: Activity
NCI-H460 [8] = experiment: Induction of apoptosis in human NCI-H460 cells assessed as necrotic cells at 64 uM after 48 hrs by Annexin V-FITC/propidium iodide staining-based flow cytometric analysis (reference value: 2.11%); assay type: functional
NCI-H460 [9] = experiment: Induction of apoptosis in human NCI-H460 cells assessed as late apoptotic cells at 64 uM after 48 hrs by Annexin V-FITC/propidium iodide staining-based flow cytometric analysis (reference value: 1.80%); assay type: functional
NCI-H460 [10] = experiment: Induction of apoptosis in human NCI-H460 cells assessed as early apoptotic cells at 64 uM after 48 hrs by Annexin V-FITC/propidium iodide staining-based flow cytometric analysis (reference value: 2.17%); assay type: functional
NCI-H460 [11] = experiment: Induction of apoptosis in human NCI-H460 cells assessed as viable cells at 64 uM after 48 hrs by Annexin V-FITC/propidium iodide staining-based flow cytometric analysis (reference value: 93.9%); assay type: functional; settings: NCI-H460, 48 h, read-out: Activity
NCI-H460 [12] = experiment: Inhibition of oxygen consumption rate in human NCI-H460 cells at 32 uM after 1 hr; assay type: functional
NCI-H460 [13] = experiment: Growth inhibition of human NCI-H460 cells at 32 uM after 48 hrs by MTT assay; assay type: functional, cell-based
NCI-H460 [14] = experiment: Induction of apoptosis in human NCI-H460 cells after 48 hrs by Annexin V-FITC/propidium iodide staining-based flow cytometric analysis; assay type: functional, cell-based

For `CC[C@H]1CCC[C@H](O[C@H]2CC[C@H](N(C)C)[C@@H](C)O2)[C@@H](C)C(=O)C2=C[C@@H]3[C@@H](C=C[C@@H]4C[C@@H](O[C@@H]5O[C@@H](C)[C@H](OC)[C@@H](OC)[C@H]5OC)C[C@@H]34)[C@@H]2CC(=O)O1` [SPINOSYN A], the Activity (MCF7 [1]) was 92.6%, the pIC50 (MCF7 [2]) was 4.78 and the pIC50 (HCT-116) was 4.97. For the same compound, the pIC50 (NCI-H460 [3]) was 4.18, the pIC50 (U-87 MG) was 3.98 and the Activity (NCI-H460 [4]) was 1.69%. For the same compound, the Activity (NCI-H460 [5]) was 4.41%, the Activity (NCI-H460 [6]) was 3.11% and the viability at 32 µM (NCI-H460 [7]) was 90.8%. It also gave an Activity (NCI-H460 [8]) of 2.33%, an Activity (NCI-H460 [9]) of 5.33% and an Activity (NCI-H460 [10]) of 4.53%. For the same compound, the viability at 64 µM (NCI-H460 [11]) was 87.8%, the inhibition (NCI-H460 [12]) was “Active” and the “growth inhibition (GI)” value (NCI-H460 [13]) was “inactive”. For the same compound, the Activity (NCI-H460 [14]) was “Dose-dependent effect”.
